Reference: US20240360091A1, “GLUN2B-SUBUNIT SELECTIVE ANTAGONISTS OF THE N-METHYL-D-ASPARTATE RECEPTORS WITH ENHANCED POTENCY AT ACIDIC PH” (Emory University, priority 2021, published 2024)
Like-named read-outs stand apart in the source and are kept apart here.

How the values were obtained:
[1] = Plasma protein binding, rapid equilibrium dialysis, dog; assay type: in vitro ADME; conditions: n=1
Description: Plasma protein binding was performed with a rapid equilibrium dialysis (RED) device containing dialysis membrane with a molecular weight cut-off of 8,000 Daltons according to the manufacturer's instructions (ThermoFisher, USA). The plasma samples (pH 7.4) and the test compound solution (1 or 5 μM) or reference standards (Warfarin and Propranolol, 10 μM) were combined (DMSO final conc 0.1%). 300 μL of this spiked plasma sample was added to the sample chamber, and 500 μL of blank PBS buffer (pH 7.4) was added into the buffer chamber. The RED device was sealed with adhesive film and then incubated at 37° C. with shaking at 300 rpm for 4 h. Following incubation, an aliquot (50 μL) was removed from each well (spiked plasma and buffer side) and diluted with equal volume of the corresponding opposite matrix (blank buffer or blank plasma) to nullify the matrix effect, and then extracted for analysis by LC-MS/MS. The amount of free material was determined by:
% Free=(LC-MS/MS peak area of test compound in buffer side/LC-MS/MS peak area of test compound in plasma side)×100%

[2] = SAD study NP10679-101, plasma pharmacokinetics; assay type: in vivo, human
Description: Each cohort consisted of 8 subjects.
(±10° C.) until shipment.

[3] = target: 5-HT2A (Homo sapiens (Human), UniProt P28223); assay: Off-target radioligand binding displacement (NIMH PDSP); conditions: pH 7.4
Description: Briefly, the compound was submitted to the NIMH PDSP and screened at a single concentration (10 μM) of test article under equilibrium conditions for ability to displace specific radioligands from binding to their targets expressed in mammalian cell membranes in vitro. Each receptor target was assayed in quadruplicate and the % inhibition of radioligand binding at each target determined at pH 7.4. […]

[4] = human, plasma, Cohort 1, 5 mg single IV
[5] = human, plasma, Cohort 2, 15 mg single IV
[6] = human, plasma, Cohort 3, 50 mg single IV
[7] = human, plasma, Cohort 4, 100 mg single IV
[8] = human, plasma, Cohort 5, 150 mg single IV
[9] = human, plasma, Cohort 6, 200 mg single IV

Chain of 5-HT2A (P28223 whole entry): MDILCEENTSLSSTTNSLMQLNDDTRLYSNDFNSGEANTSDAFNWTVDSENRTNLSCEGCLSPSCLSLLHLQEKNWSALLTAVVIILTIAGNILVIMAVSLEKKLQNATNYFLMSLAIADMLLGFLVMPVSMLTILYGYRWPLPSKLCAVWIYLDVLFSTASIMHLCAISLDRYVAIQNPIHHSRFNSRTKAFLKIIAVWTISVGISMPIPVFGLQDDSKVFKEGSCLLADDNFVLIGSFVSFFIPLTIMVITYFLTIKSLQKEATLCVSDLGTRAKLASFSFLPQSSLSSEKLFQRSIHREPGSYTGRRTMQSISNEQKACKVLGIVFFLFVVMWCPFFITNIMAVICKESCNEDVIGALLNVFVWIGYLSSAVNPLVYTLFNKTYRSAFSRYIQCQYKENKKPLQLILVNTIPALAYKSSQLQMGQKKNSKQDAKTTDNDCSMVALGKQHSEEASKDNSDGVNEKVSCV

With `O=C1CCc2cc(OC[C@H](O)CN3CCN(c4ccc(C(F)(F)F)cc4)CC3)ccc2N1` [NP10679] the “bound to dog plasma proteins” value [1] was 98.2%, the “AUMC(0-T) (ng*h^2/mL)” value ([2]; Cohort 1, 5 mg single IV) was 5794 ng*h^2/mL and the “AUMC(0-inf) (ng*h^2/mL)” value ([2]; Cohort 1, 5 mg single IV) was 35856 ng*h^2/mL. The “CL” value ([2]; Cohort 1, 5 mg single IV) was 9.82 L/h, the “Cmax” value ([2]; Cohort 1, 5 mg single IV) was 26.96 ng/mL and the “T1/2*” value ([2]; Cohort 1, 5 mg single IV, harmonic mean) was 27.6 h. For the same compound, the “AUMC(0-T) (ng*h^2/mL)” value ([2]; Cohort 2, 15 mg single IV) was 18219 ng*h^2/mL, the “AUMC(0-inf) (ng*h^2/mL)” value ([2]; Cohort 2, 15 mg single IV) was 34553 ng*h^2/mL and the “AUMC(0-T) (ng*h^2/mL)” value ([2]; Cohort 3, 50 mg single IV) was 61442 ng*h^2/mL. For the same compound, the “AUMC(0-inf) (ng*h^2/mL)” value ([2]; Cohort 3, 50 mg single IV) was 114675 ng*h^2/mL, the “AUMC(0-T) (ng*h^2/mL)” value ([2]; Cohort 4, 100 mg single IV) was 201642 ng*h^2/mL and the “AUMC(0-inf) (ng*h^2/mL)” value ([2]; Cohort 4, 100 mg single IV) was 253651 ng*h^2/mL. The “AUMC(0-T) (ng*h^2/mL)” value ([2]; Cohort 5, 150 mg single IV) was 286984 ng*h^2/mL, the “AUMC(0-inf) (ng*h^2/mL)” value ([2]; Cohort 5, 150 mg single IV) was 323299 ng*h^2/mL and the “AUMC(0-T) (ng*h^2/mL)” value ([2]; Cohort 6, 200 mg single IV) was 407581 ng*h^2/mL. The “AUMC(0-inf) (ng*h^2/mL)” value ([2]; Cohort 6, 200 mg single IV) was 459611 ng*h^2/mL, the “CL” value ([2]; Cohort 6, 200 mg single IV) was 10.39 L/h and the “T1/2*” value ([2]; Cohort 6, 200 mg single IV, harmonic mean) was 17.4 h. The “clearance as percent of the hepatic blood flow” value ([2]; human hepatic blood flow 87 L/h) was “less than 12%”, the half-life ([2]; human, plasma, intravenous, SAD and MAD studies, read-out: half-life (converted)) was ~20 h and the clearance ([2]; human, plasma, iv, 5 mg, Cohort 1, 5 mg single IV) was 164 mL/min. It also gave a Cmax ([2]; human, plasma, iv, 5 mg, Cohort 1, 5 mg single IV, read-out: Cmax) of 30 ± 14.8 ng/mL, a clearance ([2]; human, plasma, iv, 15 mg, Cohort 2, 15 mg single IV) of 200 mL/min and a Cmax ([2]; human, plasma, iv, 15 mg, Cohort 2, 15 mg single IV, read-out: Cmax) of 99.2 ng/mL. It also gave a clearance ([2]; human, plasma, iv, 50 mg, Cohort 3, 50 mg single IV) of 183 mL/min, a Cmax ([2]; human, plasma, iv, 50 mg, Cohort 3, 50 mg single IV, read-out: Cmax) of 415 ng/mL and a clearance ([2]; human, plasma, iv, 100 mg, Cohort 4, 100 mg single IV) of 183 mL/min. It also gave a Cmax ([2]; human, plasma, iv, 100 mg, Cohort 4, 100 mg single IV, read-out: Cmax) of 746 ng/mL, a clearance ([2]; human, plasma, iv, 150 mg, Cohort 5, 150 mg single IV) of 182 mL/min and a Cmax ([2]; human, plasma, iv, 150 mg, Cohort 5, 150 mg single IV, read-out: Cmax) of 954 ng/mL. The clearance ([2]; human, plasma, iv, 200 mg, Cohort 6, 200 mg single IV) was 173 mL/min, the Cmax ([2]; human, plasma, iv, 200 mg, Cohort 6, 200 mg single IV, read-out: Cmax) was 2070 ± 798 ng/mL and the AUC(0-inf) [2, 4] was 533 ng·h/mL. It also gave an AUC(0-t) [2, 4] of 335 ng·h/mL, an MRT [2, 4] of 52.9 h and a half-life ([2]; human, plasma, Cohort 1, 5 mg single IV, harmonic mean, read-out: T1/2* (converted)) of 27.6 ± 12 h. It also gave a Vd ([2]; human, plasma, Cohort 1, 5 mg single IV, read-out: Vss) of 435 L, an AUC(0-inf) [2, 5] of 1280 ng·h/mL and an AUC(0-t) [2, 5] of 1140 ng·h/mL. For the same compound, the MRT [2, 5] was 26.1 h, the half-life ([2]; human, plasma, Cohort 2, 15 mg single IV, harmonic mean, read-out: T1/2* (converted)) was 20.4 h and the Vd ([2]; human, plasma, Cohort 2, 15 mg single IV, read-out: Vss) was 306 L. For the same compound, the AUC(0-inf) [2, 6] was 4680 ng·h/mL, the AUC(0-t) [2, 6] was 3980 ng·h/mL and the MRT [2, 6] was 23.8 h. It also gave a half-life ([2]; human, plasma, Cohort 3, 50 mg single IV, harmonic mean, read-out: T1/2* (converted)) of 17.8 h, a Vd ([2]; human, plasma, Cohort 3, 50 mg single IV, read-out: Vss) of 255 L and an AUC(0-inf) [2, 7] of 9860 ng·h/mL. It also gave an AUC(0-t) [2, 7] of 9370 ng·h/mL, an MRT [2, 7] of 24.5 h and a half-life ([2]; human, plasma, Cohort 4, 100 mg single IV, harmonic mean, read-out: T1/2* (converted)) of 19.8 h. It also gave a Vd ([2]; human, plasma, Cohort 4, 100 mg single IV, read-out: Vss) of 259 L, an AUC(0-inf) [2, 8] of 13800 ng·h/mL and an AUC(0-t) [2, 8] of 13600 ng·h/mL. The MRT [2, 8] was 23 h, the half-life ([2]; human, plasma, Cohort 5, 150 mg single IV, harmonic mean, read-out: T1/2* (converted)) was 17.9 h and the Vd ([2]; human, plasma, Cohort 5, 150 mg single IV, read-out: Vss) was 250 L. For the same compound, the AUC(0-inf) [2, 9] was 20200 ng·h/mL, the AUC(0-t) [2, 9] was 19700 ng·h/mL and the MRT [2, 9] was 21.9 h. For the same compound, the half-life ([2]; human, plasma, Cohort 6, 200 mg single IV, harmonic mean, read-out: T1/2* (converted)) was 17.4 ± 2.8 h, the Vd ([2]; human, plasma, Cohort 6, 200 mg single IV, read-out: Vss) was 221 L and the Vd ([2]; human, plasma, single IV 5 to 200 mg, read-out: volume of distribution) was > 221 L. The “volume of distribution as times of the total body water space” value ([2]; in vivo) was 4.5 times and the Ki [3] was 0.638 µM.
